We go through 1 compound from patent US20160193139A1, “Composition having A. paniculata for wound healing and skin whitening, and method by using the same” (National Dong Hua University, priority 2013, published 2016).

One test deals with A375 cell. The test can be described thus: MTT cell viability assay, A375 cells. In kind it is cell-based, human. The following applies: dose-dependent manner; FIG. 5A. How it is done: (§1) HaCaT cell is an immortal human keratinocyte line (CLS order no. 300493) and A375 cell is a human melanoma cell line (ATCC, CRL-1619) that isolated from malignant melanoma. Both cells were cultured in Dulbecco's Modified Eagle Medium (DMEM; Gibco, Carlsbad, Calif., USA) with 10% fetal bovine serum (FBS; Gibco), and 1% Penicillin/Streptomycin (Biowest) in culture incubator at 37° C., 5% CO2. CCD-966SK is a human skin fibroblast (ATCC, CRL-1881) cell line that taken from the breast of patient with invasive ductal carcinoma and cultured in Minimum Essential Medium (MEM; Gibco) with 10% FBS, 1% sodium pyruvate (Biowest), and 1% Penicillin/Streptomycin (Biowest) in culture incubator at 37° C., 5% CO2.
(§2) The 3-(4,5-dimethylthiazol-2-yl)-2,5-diphenyltetrazolium bromide (MTT, Invitrogen) is a colorimetric based assay that is performed to analyze the proliferation of cells. Cells (1×10^4 cells) were seeded in 96 well plates for overnight. […] The media was removed, and formazan was solubilized by adding 100 of DMSO (Sigma-Aldrich) and absorbance was measured at 570 nm using a microplate reader (Thermo Labsystems, Opsys MR, USA). […]
In general terms: Formazan colour is commonly taken as a measure of viable cells.

The subject of test [1] is burn wound on back skin of C57BL/6 mice. The test can be described thus: Animal skin injury (burn wound) model, wound healing. In kind it is in vivo. As to conditions: for Wound Area: cream spread on burned site once/day, extract and Andrographolide 0.1 mg/ml, Silver sulfadiazine 1%, mean ± SD.
Procedure: These mice were used between 8 to 10 weeks of age and age-matched for each experiment.
A cream matrix containing 1 g polyethylene glycol/poly propylene glycol/poly ethylene glycol (PEG-PPG-PEG; MW=5800; Sigma), 2 ml polyethylene glycol-400 (PEG-400; FCW®, Taiwan), and 3 ml polyethylene glycol-1500 (PEG-1500; FCW®, Taiwan) was formed. The solution of A. paniculata extract and Andrographolide was added into cream matrix and completely mixed (for both of them, the final concentration is 0.1 mg/ml).
Mice were anesthetized by pentobarbital (50 mg/kg) and removed the hair of back. A stainless steel cylinder tool (1 cm in diameter, 0.785 cm^2 cm in area) was heated for 20 sec and attached on back skin of mice for 2 sec. […] The wound area was measured on days 1, 3, 5, 7, 9, 11, 13, 15, 17, 19, and 21 after drug treatment.
A further test concerns HaCaT cells. In words: MTT cell viability assay, HaCaT cells. It counts as cell-based, human. As to conditions: FIG. 1B. How it is done: as §1, §2
The test system of a further test is melanin in A375 cells. The test can be described thus: Melanin assay in A375 cells. It counts as cell-based, human. The following applies: after normalization with cell number, dose-dependent manner, FIG. 5B. How it is done:
Cells (1×10^5 cells) were seeded in 12 well plates and treated with drugs for 24 or 48 hr. Plates were washed with PBS and added 0.5 ml of 1N NaOH, and heating at 100° C. for 1 h. Plates were then centrifuged at 12,000 rpm for 30 min at 25° C. Supernatants (100 μl/well) were added into 96 well plates, and the secretion of melanin was determined by measuring the absorbance at 405 nm using microplate reader (Thermo Labsystems).

Another test relates to CCD-966SK cells. In words: MTT cell viability assay, CCD-966SK cells. It counts as cell-based, human. The following applies: 50 μg/ml; 24 and 48 h; FIG. 2B. On the procedure: as §1, §2

SMILES strings stand for the structures.

As for `C=C1CC[C@@H]2[C@](C)(CO)[C@H](O)CC[C@@]2(C)[C@@H]1C/C=C1/C(=O)OC[C@H]1O` [Andrographolide], in the test on A375 cell, the “cell viability of A375 cell” value was “significantly inhibited”. For the same compound, the “wound healing rate compared with silver sulfadiazine-treated mice” value in test [1] (0.1 mg/ml cream once/day vs Silver sulfadiazine 1%, FIG. 3) is “two days earlier”. Further, the “Wound Area” value is on record as 133.57 ± 28.46 mm^2 in test [1] (DAY 1); 111.94 ± 24.09 mm^2 in test [1] (DAY 3); 85.15 ± 13.35 mm^2 in test [1] (DAY 5); 48.43 ± 5.91 mm^2 in test [1] (DAY 7); 28.22 ± 9.40 mm^2 in test [1] (DAY 9); 16.46 ± 5.43 mm^2 in test [1] (DAY 11). The “Wound Area” value in test [1] (DAY 13) stood at 11.62 ± 4.49 mm^2; in test [1] (DAY 15) it was 6.94 ± 5.04 mm^2; in test [1] (DAY 17), 4.12 ± 3.96 mm^2; in test [1] (DAY 19) it was 0 mm^2; in test [1] (DAY 21), 0 mm^2. Further, the “cell viability of HaCaT cells” value in the test with HaCaT cells (50 μg/ml, 24 and 48 h) is listed as “significantly decreased”; in the test on HaCaT cells (low doses (1, 5, and 10 μg/ml), 24 h), “significantly enhanced”. In addition, the “expression level of melanin” value with melanin in A375 cells is given as “significantly inhibited”. For the same compound, the “cell viability of CCD-966SK cells” value with CCD-966SK cells is “significantly decreased”.
